Laboratory results taken from patent US11617715B2, “Methods and compositions for modifying the behavior of animals” (Texas Tech University System, priority 2016, dated 2023).

Test system: dog barking and jumping
Test: Teaser dog kennel test of dog barking and jumping
Assay type: in vivo
Conditions: kennel dogs with teaser dog; for effectiveness in reducing barking and jumping (Quinoline compared to Androstenone): Study 3
Description: The efficacy of Quinoline was tested in three studies conducted to determine if Quinoline would reduce dog barking and jumping. The composition used in the experiments comprised approximately 4 micrograms per milliliter of Quinoline.
The basic parameters of the test involved walking a teaser dog in the center aisle of a dog kennel with test dogs on either side in kennels. The kennels were chain-linked fence with concrete floors. The researchers walked a teaser dog down the aisle and recorded dogs jumping and barking over a two minute period.
In the first study, three treatments were evaluated. Treatment 1 represented no treatment of any kind. The teaser animal simply stood at the test subjects' kennel.
Treatment 2 represented a control treatment. In this case, the delivery vehicle (isopropyl alcohol) spray was administered without Quinoline.
In treatment 3, Quinoline was administered to the test subject animals.
In study 2, the efficacy of Quinoline alone was tested. Test 2 was conducted a week after test 1. The same procedure was used in study 2 except that the test animals were only subject to the delivery of Quinoline.
In study 3, Quinoline was compared to Androstenone (the compound described in U.S. Pat. No. 9,044,395). Again, the same procedures were used in study 3; the test animals were subject to Quinoline and Androstenone.

[1] = Study 1, treatment 3, Quinoline approximately 4 micrograms per milliliter, spray
[2] = Study 2, Quinoline alone, a week after study 1

Structure (SMILES)	effectiveness in reducing barking and jumping (Quinoline compared to Androstenone)	reduced barking [1]	reduced jumping [1]	reduced barking [2]	reduced jumping [2]
C[C@]12CCC(=O)C[C@@H]1CC[C@@H]1[C@@H]2CC[C@]2(C)C=CC[C@@H]12 [Androstenone, reference compound]	approximately equivalently effective				
c1ccc2ncccc2c1 [Quinoline]	approximately equivalently effective	80%	90%	100%	90%
